Seven compounds from patent US20070161665A1, “Cancer treatment method” (priority 2003, published 2007) can be followed below.

In one assay the target is AKT2 (Homo sapiens, UniProt P31751). Nature of the assay: Inhibition of AKT isoforms, enzyme IC50. It counts as biochemical.
The next assay has as its target AKT1 (Homo sapiens, UniProt P31749). Kind of assay: Inhibition of AKT isoforms, enzyme IC50. The format is biochemical.
For another assay, the target named is AKT3 (Homo sapiens, UniProt Q9Y243). Kind of assay: Inhibition of AKT isoforms, enzyme IC50. The format is biochemical.
The test system of another assay is T47D cells. Nature of the assay: Roche Cell Death ELISAPlus apoptosis assay in T47D cells (sensitization ratio). The format is cell-based, human. Conditions: compound at 25 μM, combined with GW589522. Here is the method:
T47D cells are human breast ductal carcinoma cells originally obtained from the American Type Culture Collection.
(§1) Cell lines were grown in RPMI-1640 supplemented with 25 mM HEPES, 10 mM glutamine and 10% fetal bovine serum and maintained at 37° C. and 5% CO2 in a humid incubator. Assays were performed in 96 well microtiter plates with optimum seeding densities for each cell line.
(§2) Apoptosis was measured using the Roche Cell Death ELISA^Plus kit (catalog 1 774 425) which detects fragmented nucleosomal DNA that is generated during apoptosis.
The expected level of activity (Ae) is calculated by Ae=1−((1−A1)*(1−A2)) (3) where A1 and A2 are the activities of drugs 1 and 2 alone at the concentration used in the combination (Harvey, R. J., J. Theor. Biol. 74: 411-437, 1978).
Apoptosis was measured using the Roche Cell Death ELISA^Plus kit, and the relative percentage of apoptosis was determined for each combination.

A further assay concerns HN5 cells. Kind of assay: Roche Cell Death ELISAPlus apoptosis assay in HN5 cells (median effect and sensitization ratio analysis). The note with it: HN5; for Sensitization Ratio in HN5 with 5 μM GW589522A: 5 μM GW589522A 24 h. The format is cell-based. The protocol:
HN5 cells are LICR-LON-HN5 head and neck carcinoma cells, which were a gift from the Institute of Cancer Research, Surrey, U.K.
as §1, §2
Synergistic interaction between compounds was analyzed by the median effect method described by Chou and Talalay (Adv. Enzyme Regul. 22: 27-55, 1984). Briefly, if the two compounds fit the mutually exclusive model of Chou, one calculates the combination index (CI) using the formula CI=((D)1/(Dx)1)+((D)2/(Dx)2) (1) where (D)1 is the concentration of drug 1 in the combination that gives “x” percent apoptosis, (D)2 is the same for drug 2, and (Dx)1 and (Dx)2 are the concentrations of drug 1 or 2 that give “x” percent apoptosis when used alone. (D)1 and (D)2 are known from the composition of the combination and (Dx)1 and (Dx)2 can be calculated from the equation Dx=Dm*[fa/(1−fa)]^1/m (2) where Dm is the concentration of drug giving 50% effect, fa is the fraction affected, and m is the slope from the median effect plot of log (fa/fu) where fu is the fraction unaffected versus log (D). A CI less than 1 indicates synergy, equal to 1 indicates additivity and greater than 1 antagonism.
Sensitization is measured as the ratio between observed and expected apoptosis or caspase activation from a combination of AKT kinase inhibitor and EGFR/erb inhibitor. The expected level of activity (Ae) is calculated by Ae=1−((1−A1)*(1−A2)) (3) where A1 and A2 are the activities of drugs 1 and 2 alone at the concentration used in the combination (Harvey, R. J., J. Theor. Biol. 74: 411-437, 1978).

AKT2, sequence (P31751 whole entry, species assumed, canonical isoform): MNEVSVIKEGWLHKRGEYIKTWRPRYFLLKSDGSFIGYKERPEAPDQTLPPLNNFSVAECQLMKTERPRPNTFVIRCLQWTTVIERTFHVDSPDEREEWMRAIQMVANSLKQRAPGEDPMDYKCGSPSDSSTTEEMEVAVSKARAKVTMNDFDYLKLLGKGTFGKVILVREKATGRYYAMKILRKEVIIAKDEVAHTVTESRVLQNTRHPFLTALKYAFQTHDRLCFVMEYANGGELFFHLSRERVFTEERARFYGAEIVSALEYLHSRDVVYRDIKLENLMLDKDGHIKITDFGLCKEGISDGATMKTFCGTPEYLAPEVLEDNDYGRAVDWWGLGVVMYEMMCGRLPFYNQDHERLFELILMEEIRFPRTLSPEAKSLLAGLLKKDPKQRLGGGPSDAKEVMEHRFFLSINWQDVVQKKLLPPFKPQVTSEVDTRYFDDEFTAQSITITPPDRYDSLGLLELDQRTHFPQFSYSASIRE
AKT3, sequence (Q9Y243 whole entry, species assumed, canonical isoform): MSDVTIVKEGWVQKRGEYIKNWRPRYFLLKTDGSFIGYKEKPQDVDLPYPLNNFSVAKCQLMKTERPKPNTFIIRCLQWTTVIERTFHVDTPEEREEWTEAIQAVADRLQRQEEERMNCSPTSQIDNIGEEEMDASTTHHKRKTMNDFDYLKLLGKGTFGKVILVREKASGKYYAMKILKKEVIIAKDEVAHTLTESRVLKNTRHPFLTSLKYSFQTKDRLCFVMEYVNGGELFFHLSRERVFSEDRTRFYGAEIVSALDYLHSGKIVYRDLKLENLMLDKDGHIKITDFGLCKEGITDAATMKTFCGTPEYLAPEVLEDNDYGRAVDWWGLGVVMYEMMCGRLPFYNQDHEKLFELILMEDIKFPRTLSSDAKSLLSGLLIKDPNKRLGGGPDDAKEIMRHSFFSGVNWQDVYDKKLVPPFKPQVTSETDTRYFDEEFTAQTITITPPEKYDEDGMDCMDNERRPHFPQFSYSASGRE
AKT1, sequence (P31749 whole entry, species assumed, canonical isoform): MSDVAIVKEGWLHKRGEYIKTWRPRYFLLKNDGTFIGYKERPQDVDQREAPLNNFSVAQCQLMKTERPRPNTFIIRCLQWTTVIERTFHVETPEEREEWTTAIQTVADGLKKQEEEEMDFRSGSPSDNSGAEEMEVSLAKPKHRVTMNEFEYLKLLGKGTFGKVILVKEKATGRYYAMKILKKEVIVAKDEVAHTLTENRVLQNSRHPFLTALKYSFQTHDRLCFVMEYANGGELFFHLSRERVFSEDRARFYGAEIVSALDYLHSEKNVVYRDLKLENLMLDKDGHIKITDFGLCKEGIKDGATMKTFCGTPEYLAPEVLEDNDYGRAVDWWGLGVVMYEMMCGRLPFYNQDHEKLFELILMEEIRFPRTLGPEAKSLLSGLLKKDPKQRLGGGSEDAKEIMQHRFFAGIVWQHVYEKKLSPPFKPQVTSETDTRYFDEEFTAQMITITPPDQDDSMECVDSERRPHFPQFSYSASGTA

In the case of `Nc1nonc1-c1nc2c(-c3cccc(Cl)c3)ncc(C(=O)NCCNCc3ccccc3)c2n1CC1CC1.O=C(O)C(F)(F)F` [Ex 8, 2-(4-amino-1,2,5-oxadiazol-3-yl)-4-(3-chlorophenyl)-1-(cyclopropylmethyl)-N-{2-[(phenylmethyl)amino]ethyl}-1H-imidazo[4,5-c]pyridine-7-carboxamide, trifluoroacetate salt], the IC50 stood at 7940 nM against AKT2, 8320 nM at AKT1 and 450 nM at AKT3. In addition, the “SR (sensitization ratio)” value in the assay on T47D cells is given as 7.1. Further, the “Sensitization Ratio in HN5 with 5 μM GW589522A” value (“Sensitization Ratio in HN5” for short) in the assay on HN5 cells (then compound 25 μM 4 h) was 27 @ 25.

For the compound `CCn1c(-c2nonc2N)nc2cncc(OC3CCNCC3)c21` [Ex 9, 4-[1-Ethyl-7-(piperidin-4-yloxy)-1H-imidazo[4,5-c]pyridin-2-yl]-furazan-3-ylamine], the figures for the IC50 on AKT2, on AKT1 and at AKT3 were 390 nM, 130 nM and 410 nM, respectively. For the same compound, the “Sensitization Ratio in HN5” value in the assay with HN5 cells (then compound 4 μM 4 h) is reported as 2.6 @ 4. Moreover, the “Net Apoptosis” value is recorded as 2.7% in the assay on HN5 cells (GW572016 0 μM 24 h, then Ex 9 2 μM 4 h); 1.8% with HN5 cells (GW572016 0 μM 24 h, then Ex 9 4 μM 4 h); 3.9% with HN5 cells (GW572016 0 μM 24 h, then Ex 9 8 μM 4 h); 3.7% in the assay on HN5 cells (GW572016 0 μM 24 h, then Ex 9 16 μM 4 h); 4.7% in the assay with HN5 cells (GW572016 0 μM 24 h, then Ex 9 20 μM 4 h); 6.3% with HN5 cells (GW589522 0 μM 24 h, then Ex 9 0.5 μM 4 h). For the same compound, the “Net Apoptosis” value in the assay on HN5 cells (GW589522 0 μM 24 h, then Ex 9 2 μM 4 h) is 8.7%; with HN5 cells (GW589522 0 μM 24 h, then Ex 9 8 μM 4 h), 17.9%.

Turning to `CCn1c(-c2nonc2N)nc2c(-c3ccccc3)ncc(OCC3CCCNC3)c21.O=C(O)C(F)(F)F` (centres unmarked) [Ex 10, 4-{1-ethyl-4-phenyl-7-[(3-piperidinylmethyl)oxy]-1H-imidazo[4,5-c]pyridin-2-yl}-1,2,5-oxadiazol-3-amine trifluoroacetate], the IC50 came out at 30 nM against AKT2, 10 nM against AKT1 and 10 nM against AKT3. In the assay with HN5 cells (then compound 10 μM 4 h), the “Sensitization Ratio in HN5” value is 3.7 @ 10.

As for `CCn1c(-c2nonc2N)nc2c(-c3cccc(Cl)c3)ncc(OCC3CCNCC3)c21.O=C(O)C(F)(F)F` [Ex 11, 4-{4-(3-chlorophenyl)-1-ethyl-7-[(4-piperidinylmethyl)oxy]-1H-imidazo-[4,5-c]pyridin-2-yl}-1,2,5-oxadiazol-3-amine trifluoroacetate], the figures for the IC50 at AKT2, on AKT1 and on AKT3 were 20 nM, 30 nM and 10 nM, respectively. For the same compound, the “Sensitization Ratio in HN5” value in the assay on HN5 cells (then compound 2.5 μM 4 h) is 20 @ 2.5; in the assay on HN5 cells (then compound 5 μM 4 h) it was 25 @ 5.

As for `CCn1c(-c2nonc2N)nc2c(-c3cccc(Cl)c3)ncc(OCCCCN)c21.O=C(O)C(F)(F)F` [Ex 12, 4-[7-[(4-aminobutyl)oxy]-4-(3-chlorophenyl)-1-ethyl-1H-imidazo-[4,5-c]pyridin-2-yl]-1,2,5-oxadiazol-3-amine trifluoroacetate], the IC50 against AKT2 is 40 nM; at AKT1, 40 nM; on AKT3, 10 nM. The “Sensitization Ratio in HN5” value in the assay with HN5 cells (then compound 25 μM 4 h) is given as 3.6 @ 25.

`CCn1c(-c2nonc2N)nc2c(-c3ccccc3)ncc(OCCCN)c21.O=C(O)C(F)(F)F` [Ex 13, 4-{7-[(3-aminopropyl)oxy]-1-ethyl-4-phenyl-1H-imidazo[4,5-c]pyridin-2-yl}-1,2,5-oxadiazol-3-amine trifluoroacetate]: the IC50 is 20 nM on AKT2, 40 nM against AKT1 and 10 nM at AKT3. For the same compound, the “Sensitization Ratio in HN5” value in the assay on HN5 cells (then compound 5 μM 4 h) is reported as 12 @ 5.

Take `CCn1c(-c2nonc2N)nc2cncc(OCC3CCNCC3)c21` [Ex 14, 4-[1-Ethyl-7-(piperidin-4-ylmethoxy)-1H-imidazo[4,5-c]pyridin-2-yl]-furazan-3-ylamine]: the IC50 came out at 270 nM against AKT2, 70 nM against AKT1 and 510 nM against AKT3. Also, in the assay on HN5 cells (then compound 4 h, concentration not given), the “Sensitization Ratio in HN5” value was 4.5 @.

For orientation: IC50 means the concentration at which inhibition is half-maximal. Higher therefore signals lower potency.
